Laboratory results taken from article PMC12352620, “Fragment-based discovery of dual ligand pharmacophores for lipid-sensing transcription factors for designed polypharmacology” (RSC Medicinal Chemistry, 2025).

Tests used:
Type in all cases: cell-based
[1] = target: T1, THRα (Homo sapiens, UniProt P10827); assay: Gal4-hybrid reporter gene assay THRα; conditions: for EC50 / EC50 THRα: HEK293T, Gal4-hybrid reporter, Inactive = tested 1–300 μM; for max. fold activation THRα: maximum reporter activation vs DMSO (0.1%) treated cells
T1 construct: expressed in transfected cells; host or cells: HEK293T
T1 sequence (P10827 128-410 isoform P10827-2 limits assumed): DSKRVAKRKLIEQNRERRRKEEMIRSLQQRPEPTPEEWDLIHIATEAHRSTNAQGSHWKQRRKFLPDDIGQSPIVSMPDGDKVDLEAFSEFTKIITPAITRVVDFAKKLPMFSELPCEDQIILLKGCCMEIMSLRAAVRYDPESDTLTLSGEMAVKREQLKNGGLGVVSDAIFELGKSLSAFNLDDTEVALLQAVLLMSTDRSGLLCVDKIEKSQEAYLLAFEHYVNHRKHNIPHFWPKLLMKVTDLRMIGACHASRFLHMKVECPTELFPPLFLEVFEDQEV
Experimental: (§1) NR modulation was determined as described previously[45] in Gal4 hybrid reporter gene assays in HEK293T cells (German Collection of Microorganisms and Cell Culture GmbH, DSMZ) using pFR-Luc (Stratagene, La Jolla, CA, USA; reporter), pRL-SV40 (Promega, Madison, WI, USA; internal control) and the hybrid receptor clones pFA-CMV-hTHRα-LBD,[46] pFA-CMV-hPPARγ-LBD,[47] pFA-CMV-hFXR-LBD,[48] and pFA-CMV-hRXRα-LBD,[49] coding for the hinge region and ligand binding domain of the canonical isoform of the respective NR. Cells were cultured in Dulbecco's modified Eagle's medium (DMEM), high glucose supplemented with 10% fetal calf serum (FCS), sodium pyruvate (1 mM), penicillin (100 U mL^−1), and streptomycin (100 μg mL^−1) at 37 °C and 5% CO2 and seeded in 96-well plates (3 × 10^4 cells per well). After 24 h, medium was changed to Opti-MEM without supplements and cells were transiently transfected using Lipofectamine LTX reagent (Invitrogen, Carlsbad, CA, USA) according to the manufacturer's protocol. Five hours after transfection, cells were incubated with the test compounds in Opti-MEM supplemented with penicillin (100 U mL^−1), streptomycin (100 μg mL^−1) and 0.1% DMSO for 16 h before luciferase activity was measured using the Dual-Glo Luciferase Assay System (Promega) according to the manufacturer's protocol on a Tecan Spark luminometer (Tecan Deutschland GmbH, Crailsheim, Germany). Firefly luminescence was divided by Renilla luminescence and multiplied by 1000 resulting in relative light units (RLU) to normalize for transfection efficiency and cell growth. Fold activation was obtained by dividing the mean RLU of test compound by the mean RLU of the untreated control. All samples were tested in at least three biologically independent experiments in duplicates. For dose–response curve fitting and calculation of EC50 values, the equation “[agonist] vs. response − variable slope (four parameters)” was used in GraphPad Prism (version 7.00, GraphPad Software, La Jolla, CA, USA). For selectivity profiling, the hybrid reporter gene assay was performed with Gal4 fusion receptor plasmids for RARα, PPARα, PPARδ, VDR, CAR and LXRα. The following reference agonists were used: triiodothyronine (1 μM, THR), all-trans retinoic acid (1 μM, RAR), GW7647 (1 μM, PPARα), pioglitazone (1 μM, PPARγ), L165041 (1 μM, PPARδ), calcitriol (1 μM, VDR), CITCO (1 μM, CAR), T0901317 (1 μM, LXR), GW4064 (1 μM, FXR), bexarotene (1 μM, RXR).

[2] = target: T2, PPARγ (Homo sapiens, UniProt P37231); assay: Gal4-hybrid reporter gene assay PPARγ; conditions: mean ± S.E.M., n ≥ 3; for max. fold activation PPARγ: maximum reporter activation vs DMSO (0.1%) treated cells
T2 construct: expressed in transfected cells; host or cells: HEK293T
T2 sequence (P37231 238-503 limits assumed): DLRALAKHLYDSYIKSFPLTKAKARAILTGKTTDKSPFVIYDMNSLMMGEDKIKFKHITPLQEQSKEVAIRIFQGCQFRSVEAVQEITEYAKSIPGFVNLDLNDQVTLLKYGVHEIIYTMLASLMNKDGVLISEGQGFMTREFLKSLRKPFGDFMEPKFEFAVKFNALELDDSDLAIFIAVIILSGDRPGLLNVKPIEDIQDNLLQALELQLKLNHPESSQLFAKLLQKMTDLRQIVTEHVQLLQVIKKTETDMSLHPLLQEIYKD
Experimental: as §1

[3] = target: T3, FXR (Homo sapiens, UniProt Q96RI1); assay: Gal4-hybrid reporter gene assay FXR; conditions: mean ± S.E.M., n ≥ 3; for EC50 / EC50 FXR: HEK293T, Gal4-hybrid reporter, Inactive = tested 1–300 μM; for max. fold activation FXR: maximum reporter activation vs DMSO (0.1%) treated cells
T3 construct: expressed in transfected cells; host or cells: HEK293T
T3 sequence (Q96RI1 262-486 limits assumed): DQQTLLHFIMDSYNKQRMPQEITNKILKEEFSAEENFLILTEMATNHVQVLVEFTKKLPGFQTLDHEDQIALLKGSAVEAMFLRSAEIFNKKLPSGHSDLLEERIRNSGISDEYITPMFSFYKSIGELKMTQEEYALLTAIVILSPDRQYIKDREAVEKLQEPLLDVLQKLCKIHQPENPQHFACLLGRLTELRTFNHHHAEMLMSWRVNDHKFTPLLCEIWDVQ
Experimental: as §1

[4] = target: T4, RXRα (Homo sapiens, UniProt P19793); assay: Gal4-hybrid reporter gene assay RXRα; conditions: mean ± S.E.M., n ≥ 3; for EC50 / EC50 RXRα: HEK293T, Gal4-hybrid reporter, Inactive = tested 1–300 μM; for max. fold activation RXRα: maximum reporter activation vs DMSO (0.1%) treated cells
T4 construct: expressed in transfected cells; host or cells: HEK293T
T4 sequence (P19793 227-458 limits assumed): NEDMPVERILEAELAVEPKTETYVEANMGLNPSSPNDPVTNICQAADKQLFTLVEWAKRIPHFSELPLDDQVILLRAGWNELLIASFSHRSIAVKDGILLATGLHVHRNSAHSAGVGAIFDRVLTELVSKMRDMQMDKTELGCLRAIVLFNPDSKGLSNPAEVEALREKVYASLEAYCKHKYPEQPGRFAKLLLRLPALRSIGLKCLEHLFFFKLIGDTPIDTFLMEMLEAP
Experimental: as §1

[5] = HEK293T, Gal4-hybrid reporter, Inactive = tested 1–300 μM

Row | SMILES | EC50 ([1]; mean ± S.E.M., n ≥ 3) | max. fold activation THRα ([1]; mean ± S.E.M., n ≥ 3) | EC50 [2, 5] | max. fold activation PPARγ [2] | EC50 [3] | max. fold activation FXR [3] | EC50 [4] | max. fold activation RXRα [4] | EC50 THRα ([1]; mean ± S.E.M., n ≥ 3) | EC50 FXR [3] | EC50 RXRα [4] | type of activity on THRα ([1]; Gal4-hybrid reporter gene assay) | remaining THRα activity ([1]; inverse agonism, % remain., mean ± S.E.M., n ≥ 3) | IC50 ([1]; inverse agonism, mean ± S.E.M., n ≥ 3) | EC50 PPARγ [2, 5]
1 | O=C(O)/C=C/C=C/c1ccc2c(c1)OCO2 [2.6] | 225 ± 91 µM | (5.0 ± 1.4-fold) | 137 ± 8 µM | (9.3 ± 0.5-fold) | 138 ± 44 µM | (5.2 ± 0.8-fold) | 112 ± 19 µM | (3.4 ± 0.2-fold) | – | – | – | – | – | – | –
2 | CCOc1ccc(C(=O)/C=C/C(=O)O)cc1 [2.7] | 27 ± 1 µM | (8.9 ± 0.5-fold) | 25.9 ± 0.4 µM | (31.2 ± 0.6-fold) | 26 ± 1 µM | (9.5 ± 0.4-fold) | 33 ± 6 µM | (8 ± 1-fold) | – | – | – | – | – | – | –
3 | COc1ccc(/C=C/C(=O)O)cc1 [2.12] | – | – | 126 ± 9 µM | (6.7 ± 0.3-fold) | – | – | – | – | Inactive | Inactive | Inactive | – | – | – | –
4 | O=C(O)/C=C/C(=O)c1cccc(Cl)c1 [2.16] | – | – | 34 ± 7 µM | (8.2 ± 0.5-fold) | – | – | – | – | Inactive | Inactive | Inactive | – | – | – | –
5 | COc1ccc(/C=C(/C(=O)O)C(F)(F)F)cc1 [2.19] | 55 ± 19 µM | (2.6 ± 0.3-fold) | 86 ± 8 µM | (21 ± 1-fold) | 108 ± 22 µM | (3.2 ± 0.4-fold) | 55 ± 8 µM | (3.5 ± 0.1-fold) | – | – | – | – | – | – | –
6 | O=C(O)CCCC#Cc1ccccc1 [2.27] | – | – | 106 ± 5 µM | (25.0 ± 0.8-fold) | – | – | 129 ± 11 µM | (22.5 ± 1.5-fold) | Inactive | Inactive | – | – | – | – | –
7 | O=C(O)/C=C/C(=O)c1ccc(F)cc1F [2.28] | 10 ± 3 µM | (1.7 ± 0.1-fold) | 51 ± 9 µM | (11.0 ± 0.5-fold) | – | – | – | – | – | Inactive | Inactive | – | – | – | –
8 | O=C(O)COc1ccccc1Cc1ccccc1 [2.43] | – | – | 47 ± 3 µM | (17.4 ± 0.3-fold) | – | – | – | – | Inactive | Inactive | Inactive | – | – | – | –
9 | O=C(O)c1coc(-c2cccc(Cl)c2)c1 [3.2, 5-(3-Chlorophenyl)furan-3-carboxylic acid] | 26 ± 5 µM | (2.1 ± 0.2-fold) | 32 ± 2 µM | (3.2 ± 0.2-fold) | 11 ± 2 µM | (1.7 ± 0.1-fold) | 14 ± 5 µM | (2.1 ± 0.2-fold) | – | – | – | – | – | – | –
10 | O=C(O)/C=C/C(=O)c1ccccc1 [4.1, (E)-4-Oxo-4-phenylbut-2-enoic acid] | – | – | 62 ± 2 µM | (26 ± 2-fold) | – | – | – | – | Inactive | Inactive | Inactive | – | – | – | –
11 | Cc1ccccc1C(=O)/C=C/C(=O)O [4.2, (E)-4-Oxo-4-(o-tolyl)but-2-enoic acid] | 31 ± 7 µM | (2.4 ± 0.3-fold) | 32 ± 1 µM | (20 ± 1-fold) | 39 ± 3 µM | (3.8 ± 0.4-fold) | 50 ± 4 µM | (7 ± 2-fold) | – | – | – | – | – | – | –
12 | Cc1cccc(C(=O)/C=C/C(=O)O)c1 [4.3, (E)-4-Oxo-4-(m-tolyl)but-2-enoic acid] | 19 ± 8 µM | (3.1 ± 0.6-fold) | 38 ± 1 µM | (19 ± 1-fold) | 22 ± 5 µM | (3.4 ± 0.4-fold) | 30 ± 5 µM | (4.7 ± 0.5-fold) | – | – | – | – | – | – | –
13 | Cc1ccc(C(=O)/C=C/C(=O)O)cc1 [4.4, (E)-4-Oxo-4-(p-tolyl)but-2-enoic acid] | 28 ± 3 µM | (3.4 ± 0.4-fold) | 37 ± 1 µM | (17.5 ± 0.9-fold) | 27 ± 9 µM | (3.4 ± 0.7-fold) | 35 ± 1 µM | (5.3 ± 0.2-fold) | – | – | – | – | – | – | –
14 | O=C(O)/C=C/C(=O)c1ccc(Cl)cc1 [4.5, (E)-4-Oxo-4-(4-chlorophenyl)but-2-enoic acid] | 46 ± 7 µM | (7 ± 2-fold) | 30 ± 4 µM | (12 ± 2-fold) | 40 ± 3 µM | (3.1 ± 0.3-fold) | 46 ± 1 µM | (4.0 ± 0.2-fold) | – | – | – | – | – | – | –
15 | O=C(O)C(c1ccccc1)(c1ccccc1)c1ccccc1 [compound 19] | – | – | – | – | – | – | – | – | – | Inactive | Inactive | Inverse agonist | (41 ± 5% remain.) | 36 µM | Inactive
16 | O=C(O)c1ccc(OCc2ccccc2)cc1 [compound 22] | 95 ± 9 µM | (8.8 ± 0.5-fold) | 136 ± 19 µM | (28 ± 2-fold) | – | – | – | – | – | Inactive | Inactive | – | – | – | –
17 | CSc1nccn1-c1ccc(C(=O)O)cc1 [compound 30] | 185 ± 16 µM | (2.5 ± 0.4-fold) | 53 ± 5 µM | (2.4 ± 0.1-fold) | 162 ± 31 µM | (2.2 ± 0.3-fold) | – | – | – | – | Inactive | – | – | – | –
18 | O=C(O)c1ccc(Oc2ccccc2)cc1 [compound 44] | 105 ± 28 µM | (18 ± 3-fold) | 99 ± 12 µM | (38 ± 3-fold) | – | – | – | – | – | Inactive | Inactive | – | – | – | –
19 | O=C(O)c1ccc(-c2cccc(F)c2)o1 [compound 53] | 194 ± 54 µM | (5 ± 1-fold) | 126 ± 17 µM | (14 ± 1-fold) | 53 ± 10 µM | (1.9 ± 0.1-fold) | 54 ± 9 µM | (2.2 ± 0.13-fold) | – | – | – | – | – | – | –
20 | N#Cc1c(F)c(F)cc(C(=O)O)c1F [compound 58] | – | – | 39 ± 3 µM | (9.6 ± 0.5-fold) | – | – | – | – | Inactive | Inactive | Inactive | – | – | – | –
21 | CCc1c(C(=O)O)cnn1-c1ccccc1 [compound 78] | 112 ± 44 µM | (2.0 ± 0.1-fold) | 237 ± 37 µM | (6 ± 1-fold) | – | – | 166 ± 10 µM | (1.6 ± 0.1-fold) | – | Inactive | – | – | – | – | –
